Laboratory results taken from US20240109891A1, “NOVEL SUBSTITUTED TRICYCLIC AZA-HETEROCYCLES AS SOS1 INHIBITORS” (Viva Star Biosciences (Suzhou) Co., Ltd., priority 2021, published 2024).

Key:
[1] = target: T1, KRAS G12C and SOS1 proteins (Homo sapiens, UniProt Q07889); experiment: KRAS-G12C/SOS1 binding assay (HTRF); details: Tag1-SOS1 / Tag2-KRAS G12C, 10 μM GTP
T1 construct: purchased Cisbio 63ADK000CB16PEG
T1 sequence (Q07889 1-1333): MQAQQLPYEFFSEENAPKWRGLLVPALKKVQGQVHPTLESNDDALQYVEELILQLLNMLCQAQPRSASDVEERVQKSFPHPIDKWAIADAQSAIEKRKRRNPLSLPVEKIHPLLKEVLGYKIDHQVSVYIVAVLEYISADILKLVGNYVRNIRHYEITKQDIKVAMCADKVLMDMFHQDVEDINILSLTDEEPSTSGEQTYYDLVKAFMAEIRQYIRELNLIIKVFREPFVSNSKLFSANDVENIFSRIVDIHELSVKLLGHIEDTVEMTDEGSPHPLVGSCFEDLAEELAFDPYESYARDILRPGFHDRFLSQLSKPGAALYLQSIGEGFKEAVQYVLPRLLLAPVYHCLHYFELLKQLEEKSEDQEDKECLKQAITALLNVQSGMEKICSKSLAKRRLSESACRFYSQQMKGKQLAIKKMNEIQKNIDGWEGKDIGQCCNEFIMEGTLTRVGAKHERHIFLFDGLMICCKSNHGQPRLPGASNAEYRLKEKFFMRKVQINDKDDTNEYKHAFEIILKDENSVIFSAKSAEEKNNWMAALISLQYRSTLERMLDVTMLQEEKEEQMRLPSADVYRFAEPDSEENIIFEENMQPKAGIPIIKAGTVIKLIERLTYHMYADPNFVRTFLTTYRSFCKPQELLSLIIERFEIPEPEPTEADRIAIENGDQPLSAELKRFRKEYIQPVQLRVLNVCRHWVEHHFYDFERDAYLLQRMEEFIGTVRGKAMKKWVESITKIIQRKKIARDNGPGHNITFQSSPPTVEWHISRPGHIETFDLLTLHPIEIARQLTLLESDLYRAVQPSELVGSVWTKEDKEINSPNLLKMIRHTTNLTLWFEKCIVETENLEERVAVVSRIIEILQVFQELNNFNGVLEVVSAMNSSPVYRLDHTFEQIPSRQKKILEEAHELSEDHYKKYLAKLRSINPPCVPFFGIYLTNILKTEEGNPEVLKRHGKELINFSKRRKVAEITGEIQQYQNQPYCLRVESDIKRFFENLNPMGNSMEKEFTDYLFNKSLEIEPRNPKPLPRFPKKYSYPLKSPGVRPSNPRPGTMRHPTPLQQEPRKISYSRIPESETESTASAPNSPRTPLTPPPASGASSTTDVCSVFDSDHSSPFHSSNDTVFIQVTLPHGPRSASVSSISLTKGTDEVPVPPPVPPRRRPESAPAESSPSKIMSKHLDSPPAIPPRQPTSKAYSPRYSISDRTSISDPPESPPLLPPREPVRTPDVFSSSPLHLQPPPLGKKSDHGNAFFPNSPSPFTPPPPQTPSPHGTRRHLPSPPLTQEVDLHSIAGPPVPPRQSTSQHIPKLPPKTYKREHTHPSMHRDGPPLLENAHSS
Experimental: KRAS-WT (or G12C/G12D/G12V)/SOS1 Binding Assay
Low IC50 values are indicative of high potency of the SOS1 inhibitor compounds in this assay setting.
The KRAS-WT (or G12C/G12D/G12V)/SOS1 binding assay is performed using an assay kit (Cisbio, Cat #63ADK000CB15PEG or 63ADK000CB16PEG/63ADK000CB17PEG/63ADK000CB18PEG) according to the procedure recommended by the manufacturer. • 1) Thaw and prepare the working solution of Tag1-SOS1 protein and Tag2-KRAS-WT (or G12C/G12D/G12V) protein with final concentration of 10 μM GTP (Sigma, Cat #V900868). • 2) Thaw and prepare the working solution of anti-Tag1-Tb^3+ anti-Tag2-XL665. • 3) Dispense 2 μL of serially diluted compound, 4 μL of Tag1-SOS1 protein and 4 μL of Tag2-KRAS-WT (or G12C/G12D/G12V) protein with GTP into a ProxiPlate-384 Plus, white 384-shallow well microplate (PerkinElmer, Cat #6008280). • 4) Incubate the plate for 15 minutes at room temperature. • 5) Dispense 10 μL of pre-mixed anti-Tag1-Tb^3+ and anti-Tag2-XL665 into the plate. • 6) Seal the plate and incubate for 2 hours at room temperature. • 7) Remove the plate sealer and read on PHERAstar FS (BMG LABTECH, PHERAstar FS). • 8) Calculate the ratio of the acceptor and donor emission signals for each individual well using the following equation.
[formula] • 9) IC50 values are fitted and calculated by HTRF signal values and log of compound concentrations to nonlinear regression [Log (inhibitor) vs. Response−Variable Slope (four parameters)] using the GraphPad Prism 8.0.

[2] = target: T2, KRAS G12D and SOS1 proteins (Homo sapiens, UniProt Q07889); experiment: KRAS-G12D/SOS1 binding assay (HTRF); details: Tag1-SOS1 / Tag2-KRAS G12D, 10 μM GTP
T2 construct: purchased Cisbio 63ADK000CB17PEG
T2 sequence (Q07889 1-1333): T1 sequence (Q07889 1-1333)

[3] = target: T3, KRAS-WT and SOS1 proteins (Homo sapiens, UniProt Q07889); experiment: KRAS-WT/SOS1 binding assay (HTRF); details: Tag1-SOS1 / Tag2-KRAS-WT, 10 μM GTP, read-out: Activity Data in Kras: SOS1 Assay, Wild Type
T3 construct: purchased Cisbio 63ADK000CB15PEG
T3 sequence (Q07889 1-1333): T1 sequence (Q07889 1-1333)

## Cc1nc(N[C@H](C)c2cccc3c2CCC3(F)F)c2cc(C3CCOCC3)c3nncn3c2n1 [Example 1, N-[(1R)-1-(1,1-difluoro-2,3-dihydro-1H-inden-4-yl)ethyl]-12-methyl-7-(oxan-4-yl)-2,4,5,11,13-pentaazatricyclo[7.4.0.0^{2,6}]trideca-1(9),3,5,7,10,12-hexaen-10-amine]
[1]
  IC50: < 100 nM
[2]
  IC50: < 100 nM

## Cc1nc(N[C@H](C)c2cccc(C(F)(F)CO)c2)c2cc(C3CCOCC3)c3nncn3c2n1 [Example 2, (R)-2,2-difluoro-2-(3-(1-((2-methyl-6-(tetrahydro-2H-pyran-4-yl)-[1,2,4]triazolo[4′,3′:1,6]pyrido[2,3-d]pyrimidin-4-yl)amino)ethyl)phenyl)ethanol]
[1]
  IC50: < 100 nM
[2]
  IC50: < 100 nM

## COc1cc2c(cc1-c1ccc(=O)n(C)c1)c(N[C@H](C)c1cccc(C(F)(F)CO)c1)nc1ccnn12 [Example 45, (R)-5-(5-((1-(3-(1,1-difluoro-2-hydroxyethyl)phenyl)ethyl)amino)-8-methoxypyrazolo[1,5-a]quinazolin-7-yl)-1-methylpyridin-2(1H)-one]
[3]
  IC50: < 100 nM
[1]
  IC50: 100 to 500 nM
[2]
  IC50: < 100 nM

## COc1cc2c(cc1-c1ccc(=O)n(C)c1)c(N[C@H](C)c1cccc3c1CCC3(F)F)nc1ccnn12 [Example 46, (R)-5-(5-((1-(1,1-difluoro-2,3-dihydro-1H-inden-4-yl)ethyl)amino)-8-methoxypyrazolo[1,5-a]quinazolin-7-y1)-1-methylpyridin-2(1H)-one]
[3]
  IC50: < 100 nM
[1]
  IC50: 100 to 500 nM
[2]
  IC50: 100 to 500 nM

## COc1cc2c(cc1C1CCOCC1)c(N[C@H](C)c1cccc(C(F)F)c1F)nc1ccnn12 [Example 47, (R)-N-(1-(3-(difluoromethyl)-2-fluorophenyl)ethyl)-8-methoxy-7-(tetrahydro-2H-pyran-4-yl)pyrazolo[1,5-a]quinazolin-5-amine]
[3]
  IC50: 100 to 500 nM
[1]
  IC50: 500 to 5000 nM
[2]
  IC50: 500 to 5000 nM

## COc1cc2c(cc1C1=CCOCC1)c(N[C@H](C)c1cccc3c1CCC3(F)F)nc1ccnn12 [Example 49, (R)-N-(1-(1,1-difluoro-2,3-dihydro-1H-inden-4-y1)ethyl)-7-(3,6-dihydro-2H-pyran-4-yl)-8-methoxypyrazolo[1,5-a]quinazolin-5-amine]
[1]
  IC50: 100 to 500 nM

## COc1cc2c(cc1C1CCOCC1)c(N[C@H](C)c1cccc3c1CCC3(F)F)nc1ccnn12 [Example 50, (R)-N-(1-(1,1-difluoro-2,3-dihydro-1H-inden-4-yl)ethyl)-8-methoxy-7-(tetrahydro-2H-pyran-4-yl)pyrazolo[1,5-a]quinazolin-5-amine]
[1]
  IC50: 100 to 500 nM

## COc1cc2c(cc1C1CCOCC1)c(N[C@H](C)c1cccc(C(F)(F)CO)c1)nc1ccnn12 [Example 51, (R)-2,2-difluoro-2-(3-(1-((8-methoxy-7-(tetrahydro-2H-pyran-4-yl)pyrazolo[1,5-a]quinazolin-5-yl)amino)ethyl)phenyl)ethanol]
[3]
  IC50: 100 to 500 nM
[1]
  IC50: 100 to 500 nM
[2]
  IC50: 100 to 500 nM

## C[C@@H](Nc1nc2ccnn2c2cc(=O)n(C3CCOCC3)cc12)c1cccc(C(F)F)c1F [Example 59, (R)-5-((1-(3-(difluoromethyl)-2-fluorophenyl)ethyl)amino)-7-(tetrahydro-2H-pyran-4-yl)pyrazolo[1,5-a]pyrido[3,4-e]pyrimidin-8(7H)-one]
[1]
  IC50: < 100 nM

## C[C@@H](Nc1nc2ccnn2c2cc(=O)n(C3CCOCC3)cc12)c1cccc(C(F)(F)CO)c1 [Example 60, (R)-5-((1-(3-(1,1-difluoro-2-hydroxyethyl)phenyl)ethyl)amino)-7-(tetrahydro-2H-pyran-4-yl)pyrazolo[1,5-a]pyrido[3,4-e]pyrimidin-8(7H)-one]
[3]
  IC50: < 100 nM
[1]
  IC50: < 100 nM
[2]
  IC50: < 100 nM
